# Experimental data from the supplement of paper PMC10307832.
# Experiments:
# Assay in all cases: relative viability (nuclei count vs DMSO), 5 days (fraction); higher = more cells survive
# [1] = compound: CS(=O)(=O)c1ccc(C(=O)Nc2ccc(Cl)c(-c3ccccn3)c2)c(Cl)c1 [Vismodegib] + COc1cccc2cc(-c3nc([C@H]4CC[C@H](C(=O)O)CC4)n4ncnc(N)c34)[nH]c12 [OSI-027] (partner 0.5 µM)
# Method in brief: (§1)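 After 5 days of treatment, lung cancer cells in 1536-well plates were fixed and stained in a single step (final 0.05% Triton X-100, 1% formaldehyde, 1 ug/ml Hoechst) and their nuclei counted on 4× images. Treatment had been applied by pin tool the day after seeding as one drug alone or as a fixed anchor-drug dose with five library-drug doses (not always all listed) in √10 steps. Relative viability is the nuclei count of treated wells divided by that of vehicle wells, and values are medians of duplicate plates.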
# [2] = compound: CS(=O)(=O)c1ccc(-c2cnc(N)c(C(=O)Nc3ccccc3)n2)cc1 [VE-821] + Cc1cc(Nc2cc(N3CCN(C)CC3)nc(Sc3ccc(NC(=O)C4CC4)cc3)n2)n[nH]1 [Tozasertib] (partner 0.1 µM)
# Method in brief: as §1
# [3] = compound: N#CC[C@H](C1CCCC1)n1cc(-c2ncnc3[nH]ccc23)cn1 [Ruxolitinib] + C[C@]1(O)C[C@@H](c2nc(-c3ccc4ccc(-c5ccccc5)nc4c3)c3c(N)nccn32)C1 [Linsitinib] (partner 1 µM)
# Method in brief: as §1
# [4] = compound: N#CC[C@H](C1CCCC1)n1cc(-c2ncnc3[nH]ccc23)cn1 [Ruxolitinib] + Nc1ncn([C@H]2C[C@H](O)[C@@H](CO)O2)c(=O)n1 [Decitabine] (partner 2 µM)
# Method in brief: as §1
Cell Line,relative viability ([1]; first compound 0.08 µM),relative viability ([1]; first compound 0.253 µM),relative viability ([1]; first compound 0.8 µM),relative viability ([1]; first compound 2.53 µM),relative viability ([1]; first compound 8 µM),relative viability ([2]; first compound 0.08 µM),relative viability ([2]; first compound 0.253 µM),relative viability ([2]; first compound 0.8 µM),relative viability ([2]; first compound 2.53 µM),relative viability ([2]; first compound 8 µM),relative viability ([3]; first compound 0.08 µM),relative viability ([3]; first compound 0.253 µM),relative viability ([3]; first compound 0.8 µM),relative viability ([3]; first compound 2.53 µM),relative viability ([3]; first compound 8 µM),relative viability ([4]; first compound 0.08 µM),relative viability ([4]; first compound 0.253 µM),relative viability ([4]; first compound 0.8 µM),relative viability ([4]; first compound 2.53 µM),relative viability ([4]; first compound 8 µM)
RERF-LC-KJ,0.678,0.568,0.621,0.593,0.487,0.539,0.478,0.483,0.349,0.274,0.883,0.812,0.877,0.904,0.634,0.689,0.812,0.791,0.719,0.589
NCI-H1975,0.724,0.633,0.686,0.632,0.607,0.862,0.625,,0.17,0.139,1.03,1.03,1.05,0.71,0.587,0.329,0.384,0.36,0.304,0.222
SK-MES-1,0.729,0.576,0.598,0.59,0.577,0.968,0.818,0.828,0.561,0.325,1.15,1.02,1.04,0.866,0.622,0.45,0.362,0.429,0.319,0.358
NCI-H661,0.735,0.705,0.723,0.738,0.731,0.351,0.354,0.336,0.343,0.336,0.598,0.639,0.708,0.498,0.591,0.547,0.548,0.588,0.484,0.505
HOP-62,0.841,0.812,0.793,0.8,0.899,0.399,0.404,0.349,0.382,0.361,,0.995,1.05,0.991,0.867,0.197,0.258,0.227,0.208,0.19
HCC-15,0.753,0.664,0.654,0.738,0.631,0.451,0.361,0.322,0.347,0.309,0.855,0.849,0.855,0.842,0.737,0.677,0.553,0.7,0.55,0.48
A-427,0.471,0.464,0.446,0.405,0.484,0.231,0.186,0.217,0.192,0.144,1.14,1.11,1.13,0.961,0.922,0.566,0.558,0.579,0.605,0.58
